From patent US20130136803A1, “COMPOSITIONS FOR ALGAE TREATMENT IN RECIRCULATING AND STAGNANT WATER SYSTEMS” (ARCH CHEMICALS, INC., priority 2011, published 2013)

System: wild mustard algae strain
Test: Efficacy of zinc and chelating agents against mustard algae (biomass over time by absorbance at 450 nm and visual assessment)
Format: cell-based
Settings: FIGS. 1-4
Method: A wild mustard algae strain isolated from a residential swimming pool was used in this study. This strain was re-suspended into sterile capped flasks of 250 ml capacity, containing 100 ml sterile Kratz/Meyers (KM) algae medium. Algae stock cultures were incubated at room temperature with a 16/8 hours on/off cycle white fluorescent lighting for approximately 2 weeks to obtain actively growing liquid cultures at the time of experiment.
Sterile KM medium was dispensed in 50 ml aliquots into sterile 125 ml capped Erlenmeyer flasks containing 40 glass beads of 6 mm diameter. Beads provided an increased surface area for algae to attach, since this alga develops as a loosely attached yellow growth on pool surfaces. Simultaneously, beads helped to homogenize samples by grinding at the time of sampling. An initial mustard algae culture of approximately 2×104 was set into each flask. […]
Algal cultures were challenged with 2 or 4 ppm zinc from zinc sulfate monohydrate combined with 2 or 10 ppm chelator. […] Biomass was measured over time by surrogate parameters: absorbance and visual assessment. Absorbance was measured at 450 nm using 1 inch cell in a spectrophotometer; visual assessment range was 0-3, where “0” equal to no growth and “3” equal to very heavy growth. The results of the optical readings were arithmetically averaged. […]

O=P1([O-])OP(=O)([O-])OP(=O)([O-])OP(=O)([O-])OP(=O)([O-])OP(=O)([O-])O1.[Na+].[Na+].[Na+].[Na+].[Na+].[Na+] [SHMP, sodium hexametaphosphate]
effect of chelating agent on the algaestatic activity of zinc ions (2 or 4 ppm zinc from zinc sulfate monohydrate combined with 2 or 10 ppm chelator, 3 weeks, compared with zinc alone): enhanced the performance of the algaestatic activity of zinc ions at all concentrations | dependence of the enhancing effect on the ratio of zinc to SHMP (zinc to SHMP ratios 2:1 to 1:5): effect became greater with increasing amount of SHMP to a ratio of 1:5
